Experimental data as given in US20090239757A1, “Control Sequences Responding to AMP and Uses Thereof” (priority 2004, published 2009).
Residues, ends and D or L forms follow the SMILES beside them.

Test system: E. coli TOP10
Assay: microarray transcription profile of E. coli TOP10 expressing Novispirin G10 (pDRS5-novispirin, arabinose induced) relative to control strain pBAD gIII A
Format: cell-based, Escherichia coli
Procedure: In order to obtain a transcriptional profile of E. coli expressing Novispirin G10, 2×10 mL sterile LB media (10 g/L Bactotryptone, 5 g/L Yeast extract, and 10 g/L NaCl) containing 100 mg/L ampicillin was inoculated with E. coli TOP10 harbouring pDRS5-novispirin and pBAD gIII A, respectively. These cultures were grown overnight at 37° C. at 180 rpm. The overnight cultures were diluted 1/100 into fresh sterile RM media (2% Casamino Acids, 0.2% glycerol, 1 mM MgCl2, 0.1 mM thiamine, 6 g/L Na2HPO4, 3 g/L KH2PO4.2H2O, 0.5 g/L NaCl, 0.1 g/L NH4Cl at pH 7.4) supplemented with 100 mg/L ampicillin and 0.1% arabinose. 100 mL of each culture was grown at 37° C., 240 rpm for 4.5 hours before being harvested by poured into centrifugation tubes containing 10 mL pre-frozen milliQ water and immediate centrifugation at 4200 g for 15 minutes at 4° C. Immediately hereafter, the supernatant was decanted and the cell […] was frozen at −20° C. for storage until RNA preparation was initiated.
Total RNA was isolated from the two E. coli (expressing either Novispirin G10 or a control peptide) cultures by use of the High Pure RNA Isolation kit (Roche, cat #1 828 665) according to the manufacturers instructions. Residual DNA was removed on-column with RNase-free DNase. Labelled samples were prepared from 30 μg of total bacterial RNA. Fluorescent first strand cDNA was prepared by random primed reverse transcription (Superscript II; Life Technologies) by use of random hexamers for cDNA synthesis. 2 μl (20 μg) of random primer was mixed with 15 μl (30 μg) of total RNA, incubated for 5 min at 70° C., and cooled on ice. To each sample was added 5× first strand buffer (6 μl), 0.1 M DTT (3 μl), dNTP mix (5 mM dATP, dGTP and dTTP and 2 mM dCTP) (1 μl), RNaseOut (1 μl), Superscript II reverse transcriptase (2 μl) and Cy-dCTP (3 μl). Reverse transcription was carried out at 42° C. for 1 hr. RNA was removed by addition of 10 μl NaOH (1 M) and incubation at 65° C. for 10 min. The samples were neutralised by addition of 10 μl HCl (1 M). Cy3 and Cy5 cDNA samples were mixed and immediately purified with a GFX PCR DNA and Gel Band Purification Kit (Amersham Biosciences).
Slides were pre-hybridised at 42° C. for 45 min in a solution containing 4×SSC+0.5% SDS+1% BSA and dried by centrifugation. Hybridizations were in a volume of 25 μl under a supported cover slip at 42° C. for 16-18 h at high humidity. The hybridisation mixture was labelled cDNA in a formamide-based hybridisation buffer (MWG—supplied with the pan-arrays). Cover slip and supports were gently removed (2×SSC in a wash tray) and arrays were washed by immersion into 2×SSC+0.1% SDS for 5 min, 1×SSC+0.1% SDS for 5 min, 0.5×SSC for 5 min and 1× millipore water for 10 sec and dried by centrifugation. Slides were scanned on a GMS 418 scanner to detect Cy3 and Cy5 fluorescence. Data analysis was carried out using ImaGene 5.0 and GeneSight 3.5 from BioDiscovery (www.biodiscovery.com). Two biological replicate experiments with four replicate hybridisations in each experiment were carried out for generation of data.
Pan E. coli K12 Arrays from MWG Biotech were used in this study (lot No.: 020206). The 4239 E. coli K12 specific oligonucleotide probes present on this glass-based DNA chip represent the complete Escherichia coli (K12) genome
Gene expression data was analyzed using the GeneSight 4.1.5 software from BioDiscovery. Data was prepared using local background correction, removal of flagged spots (contaminated background or signal), floor value raising data to a minimum value of 20, calculation of ratio, log(2) transformation of ratios, print-tip lowess normalization, and finally combination of replicate spot.

With `CC[C@H](C)[C@H](NC(=O)CNC(=O)[C@H](CCCCN)NC(=O)[C@H](CCCNC(=N)N)NC(=O)[C@@H](NC(=O)[C@@H](NC(=O)[C@H](CCCNC(=N)N)NC(=O)[C@H](CCCNC(=N)N)NC(=O)[C@H](CC(C)C)NC(=O)[C@H](CC(N)=O)NC(=O)[C@@H](N)CCCCN)[C@@H](C)CC)[C@@H](C)CC)C(=O)N[C@@H](Cc1c[nH]cn1)C(=O)N[C@H](C(=O)N[C@H](C(=O)N[C@@H](CCCCN)C(=O)N[C@@H](CCCCN)C(=O)N[C@@H](Cc1ccc(O)cc1)C(=O)NCC(=O)O)[C@@H](C)CC)[C@@H](C)CC` [Novispirin G10] (H-KNLRRIIRKGIHIIKKYG-OH; N-terminus assumed) the “ratio, gene abrB” value was −6.2, the “ratio, gene ackA” value was −4.8 and the “ratio, gene adhP” value was 3.8. The “ratio, gene aer” value was 14.3, the “ratio, gene agaZ” value was −2.9 and the “ratio, gene ais” value was 14.1. For the same molecule, the “ratio, gene amyA” value was 5.8, the “ratio, gene ansB” value was −3.8 and the “ratio, gene appB” value was 47.2. The “ratio, gene appC” value was 3.5, the “ratio, gene argA” value was 3.8 and the “ratio, gene aspA” value was −5.7. For the same molecule, the “ratio, gene asr” value was 19.2, the “ratio, gene atpC” value was 3.1 and the “ratio, gene b0919” value was −2.8. For the same molecule, the “ratio, gene b1044” value was −3.0, the “ratio, gene b1354” value was 3.0 and the “ratio, gene b1355” value was 5.0. For the same molecule, the “ratio, gene b1362” value was −14.9, the “ratio, gene b1394” value was 2.8 and the “ratio, gene b1408” value was 3.3. The “ratio, gene b1422” value was 3.0, the “ratio, gene b1450” value was 4.8 and the “ratio, gene b1454” value was 9.7. For the same molecule, the “ratio, gene b1518” value was −3.8, the “ratio, gene b1520” value was 3.2 and the “ratio, gene b1582” value was 6.8. For the same molecule, the “ratio, gene b1583” value was 4.3, the “ratio, gene b1593” value was −5.0 and the “ratio, gene b1605” value was 3.0. For the same molecule, the “ratio, gene b1627” value was 3.5, the “ratio, gene b1643” value was 4.5 and the “ratio, gene b1691” value was 3.7. The “ratio, gene b1721” value was 98.3, the “ratio, gene b1724” value was 9.1 and the “ratio, gene b1825” value was 8.7. The “ratio, gene b1826” value was 4.6, the “ratio, gene b1836” value was 6.9 and the “ratio, gene b1837” value was 5.3. The “ratio, gene b1903” value was −3.1, the “ratio, gene b1953” value was 3.8 and the “ratio, gene b1995” value was −3.1. For the same molecule, the “ratio, gene b2097” value was 8.1, the “ratio, gene b2253” value was 8.4 and the “ratio, gene b2254” value was 5.5. The “ratio, gene b2256” value was 4.0, the “ratio, gene b2324” value was −4.0 and the “ratio, gene b2372” value was 3.8. The “ratio, gene b2383” value was −4.1, the “ratio, gene b2809” value was 3.4 and the “ratio, gene b2833” value was 5.1. The “ratio, gene b2879” value was 2.9, the “ratio, gene b3023” value was 3.9 and the “ratio, gene b3100” value was 9.9. For the same molecule, the “ratio, gene blc” value was 4.9, the “ratio, gene bolA” value was 13.0 and the “ratio, gene btuE” value was 3.4. For the same molecule, the “ratio, gene btuR” value was −2.8, the “ratio, gene celF” value was 4.1 and the “ratio, gene cheR” value was 6.8. The “ratio, gene clpB” value was −3.6, the “ratio, gene codA” value was 3.4 and the “ratio, gene crcA” value was 11.7. The “ratio, gene csgF” value was 2.8, the “ratio, gene dacC” value was 3.6 and the “ratio, gene dcuC” value was −6.2. The “ratio, gene deoA” value was 3.8, the “ratio, gene deoB” value was 3.0 and the “ratio, gene deoR” value was 2.9. The “ratio, gene dgt” value was −2.7, the “ratio, gene dksA” value was 4.1 and the “ratio, gene dnaJ” value was −3.0. The “ratio, gene dnaK” value was −2.8, the “ratio, gene dps” value was 4.4 and the “ratio, gene ebgR” value was −3.0. The “ratio, gene ecpD” value was −3.7, the “ratio, gene elaB” value was 9.7 and the “ratio, gene entF” value was −3.2. The “ratio, gene evgA” value was −2.9, the “ratio, gene fadL” value was −2.6 and the “ratio, gene fdnG” value was −3.3. The “ratio, gene fecE” value was −2.7, the “ratio, gene fecR” value was −3.6 and the “ratio, gene feoA” value was −6.1. The “ratio, gene feoB” value was −5.2, the “ratio, gene fepC” value was −2.7 and the “ratio, gene fhuE” value was −2.7. For the same molecule, the “ratio, gene fimC” value was 3.8, the “ratio, gene flgG” value was −2.6 and the “ratio, gene flhB” value was −2.8. The “ratio, gene flhD” value was −2.7, the “ratio, gene fliD” value was 5.4 and the “ratio, gene fliJ” value was −3.1. The “ratio, gene fliQ” value was 4.5, the “ratio, gene folA” value was 3.2 and the “ratio, gene frdC” value was −5.0. For the same molecule, the “ratio, gene frwB-r” value was 4.0, the “ratio, gene gabP” value was 8.2 and the “ratio, gene gabT” value was 6.5. The “ratio, gene gapC_1” value was 3.3, the “ratio, gene gatA” value was −3.0 and the “ratio, gene gatC” value was −2.7. The “ratio, gene gatD” value was −3.2, the “ratio, gene gatY” value was −6.2 and the “ratio, gene gatz” value was −6.8. For the same molecule, the “ratio, gene gcvH” value was −3.9, the “ratio, gene gcvT” value was −4.8 and the “ratio, gene glk” value was 3.4. The “ratio, gene glpA” value was −2.7, the “ratio, gene glpA-r” value was −2.9 and the “ratio, gene glpB” value was −7.8. The “ratio, gene glpC” value was −5.9, the “ratio, gene glpT” value was −3.6 and the “ratio, gene gltB” value was −2.7. For the same molecule, the “ratio, gene gntT” value was −4.3, the “ratio, gene grpE” value was −3.0 and the “ratio, gene hdeA” value was 7.7. For the same molecule, the “ratio, gene hdeB” value was 7.9, the “ratio, gene hdeD” value was 4.3 and the “ratio, gene hemL” value was 8.3. The “ratio, gene hisC” value was −4.5, the “ratio, gene hscA” value was 3.2 and the “ratio, gene hslU” value was −3.2. For the same molecule, the “ratio, gene hslV” value was −3.0, the “ratio, gene hybB” value was −2.9 and the “ratio, gene hyfD” value was −2.9. The “ratio, gene hypB” value was −3.4, the “ratio, gene hypC” value was −3.0 and the “ratio, gene hypE” value was −3.9. For the same molecule, the “ratio, gene ibpB” value was −6.5, the “ratio, gene katE” value was 9.9 and the “ratio, gene lacY” value was −2.7. For the same molecule, the “ratio, gene lacZ” value was −9.1, the “ratio, gene lon” value was −2.9 and the “ratio, gene malE” value was 4.6. The “ratio, gene malM” value was 4.0, the “ratio, gene mcrA” value was 3.9 and the “ratio, gene menA” value was −2.9. For the same molecule, the “ratio, gene menB” value was 2.9, the “ratio, gene metE” value was 4.0 and the “ratio, gene mfd-r” value was −4.6. For the same molecule, the “ratio, gene mglC” value was −2.6, the “ratio, gene mgtA” value was 7.5 and the “ratio, gene minD” value was −2.9. For the same molecule, the “ratio, gene mlc” value was −2.6, the “ratio, gene mopA” value was −3.6 and the “ratio, gene mopB” value was −9.1. For the same molecule, the “ratio, gene mrr” value was 2.9, the “ratio, gene nagA” value was 3.7 and the “ratio, gene nagB” value was 8.8. For the same molecule, the “ratio, gene napD” value was −3.5, the “ratio, gene napF” value was −3.2 and the “ratio, gene napH” value was −7.9. The “ratio, gene narU” value was 15.1, the “ratio, gene narX” value was −4.0 and the “ratio, gene narY” value was 11.0. For the same molecule, the “ratio, gene narZ” value was 4.9, the “ratio, gene ndh” value was 3.1 and the “ratio, gene nirB” value was −2.9. For the same molecule, the “ratio, gene nirC” value was −3.0, the “ratio, gene nirD” value was −5.7 and the “ratio, gene nmpC” value was −6.6. For the same molecule, the “ratio, gene nrfA” value was −12.7, the “ratio, gene ompF” value was −4.5 and the “ratio, gene ompX” value was 4.7. The “ratio, gene osmC” value was 7.2, the “ratio, gene osmE” value was 11.7 and the “ratio, gene osmY” value was 6.4. The “ratio, gene otsA” value was 5.2, the “ratio, gene otsB” value was 5.6 and the “ratio, gene pepB” value was 4.7. The “ratio, gene pheP” value was 3.4, the “ratio, gene phnE” value was 4.6 and the “ratio, gene phoP” value was 2.8. For the same molecule, the “ratio, gene phoQ” value was 3.7, the “ratio, gene potG” value was 4.0 and the “ratio, gene poxB” value was 3.3. For the same molecule, the “ratio, gene pphA” value was 5.2, the “ratio, gene proW” value was 7.9 and the “ratio, gene pspA” value was 6.7. For the same molecule, the “ratio, gene pspB” value was 6.9, the “ratio, gene pspC” value was 15.8 and the “ratio, gene pspD” value was 13.5. The “ratio, gene pspE” value was 9.4, the “ratio, gene pssA” value was −2.8 and the “ratio, gene ptsP-r” value was −3.9. For the same molecule, the “ratio, gene pyrE” value was 4.2, the “ratio, gene queA” value was −2.9 and the “ratio, gene rcsA” value was −2.8. For the same molecule, the “ratio, gene rfaJ” value was −2.6, the “ratio, gene rfaP” value was −3.0 and the “ratio, gene rmf-r” value was 3.9. The “ratio, gene rnt” value was 3.9, the “ratio, gene rpiR” value was −3.1 and the “ratio, gene rpoB-r” value was 2.8. The “ratio, gene rpsV” value was 5.2, the “ratio, gene rstB” value was 3.6 and the “ratio, gene sfcA” value was 5.8. For the same molecule, the “ratio, gene sfmC” value was 11.4, the “ratio, gene sfsA” value was 6.4 and the “ratio, gene slp” value was 3.6. For the same molecule, the “ratio, gene smp” value was −3.2, the “ratio, gene sohA” value was 4.3 and the “ratio, gene speG” value was 3.8. The “ratio, gene srlA” value was −2.7, the “ratio, gene srlR” value was −2.6 and the “ratio, gene talA” value was 11.7. For the same molecule, the “ratio, gene tdcB” value was −2.7, the “ratio, gene tdcC” value was −5.1 and the “ratio, gene thrB” value was 3.3. The “ratio, gene tktB” value was 26.5 and the “ratio, gene tolC” value was 3.9.
